From ChEMBL document CHEMBL1201862, “PubChem BioAssay data set” (2004)
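Where inhibition never reached the appropriate level, the endpoint shown equals the highest concentration tested. Otherwise, values were interpolated linearly from a five-concentration, 48-hour dose response in 96-well plates. GI50 is the concentration that inhibits growth by half.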 Active and inactive are the calls of the source. No stated cut-off is given here; in the data, active = GI50 up to about 1.1 µM and inactive = higher.

Tests used:
Test in all cases: NCI anticancer screen, dose series, 48 h
KM-20L2 = system: KM-20L2
LXFL 529 = system: LXFL 529
DMS-273 = system: DMS-273
SNB-78 = system: SNB-78
HOP-18 = system: HOP-18
M19-MEL = system: M19-MEL
DMS-114 = system: DMS-114
RXF 631 = system: RXF 631
XF498 = system: XF498

Structure (SMILES) | GI50 (KM-20L2) | GI50 (LXFL 529) | GI50 (DMS-273) | GI50 (SNB-78) | GI50 (HOP-18) | GI50 (M19-MEL) | GI50 (DMS-114) | GI50 (RXF 631) | GI50 (XF498)
COC(=O)CCC(=O)CC(=O)C(=O)Nc1ccc(F)cc1 | > 100 µM (inactive) | > 100 µM (inactive) | > 100 µM (inactive) | > 100 µM (inactive) | > 100 µM (inactive) | > 100 µM (inactive) | > 100 µM (inactive) |  | 
COc1ccc2c(CCNC(=O)/C=C/c3ccccc3)c(C(C)=O)[nH]c2c1[N+](=O)[O-] | 19.1 µM (inactive) | 10 µM (inactive) | 5.64 µM (inactive) | 40.2 µM (inactive) |  |  | 13.6 µM (inactive) | 13.2 µM (inactive) | 
C[C@]12CCC3[C@@H](CC[C@@H]4c5nonc5CC[C@]34C)C1CCC2=O (stereo partly drawn) | 25.7 µM (inactive) | 23.3 µM (inactive) | 19.5 µM (inactive) | 23.2 µM (inactive) | 43.9 µM (inactive) | 21.6 µM (inactive) | 20.6 µM (inactive) | 38.2 µM (inactive) | 19.1 µM (inactive)
COC1=C(OC)C(=O)c2cc(C)c(=O)c(C)cc2C1=O | 21.1 µM (inactive) | 4.36 µM (inactive) | 25.4 µM (inactive) | 18.5 µM (inactive) | 16.3 µM (inactive) | 3.37 µM (inactive) | 3.27 µM (inactive) | 50.6 µM (inactive) | 
COC(=O)C1=C(C(=O)OC)C2(C(=O)OC)OC1(OC)C(C1(C(=O)OC)C(C(=O)OC)=C1C(=O)OC)=C2C(=O)OC (stereo not drawn) | > 100 µM (inactive) | > 100 µM (inactive) | > 100 µM (inactive) | > 100 µM (inactive) | > 100 µM (inactive) | > 100 µM (inactive) | > 100 µM (inactive) |  | > 100 µM (inactive)
O=S1(=O)NN=C(NCc2ccc(Cl)cc2)c2ccccc21 | > 100 µM (inactive) | 61.1 µM (inactive) | > 100 µM (inactive) | > 100 µM (inactive) |  | > 100 µM (inactive) | > 100 µM (inactive) | > 100 µM (inactive) | 90.6 µM (inactive)
C=CC1=CSNN1 | > 100 µM (inactive) | > 100 µM (inactive) | > 100 µM (inactive) |  | > 100 µM (inactive) | > 100 µM (inactive) | > 100 µM (inactive) |  | 
COC(=O)C1=Cc2cn(S(=O)(=O)c3ccc(C)cc3)c3cccc(c23)C(C=C(C)C)N1C(C)=O (stereo not drawn) | 69.3 µM (inactive) | 32 µM (inactive) | 6.01 µM (inactive) | 24.5 µM (inactive) | 38.5 µM (inactive) | 21.4 µM (inactive) | 11.5 µM (inactive) |  | 9.55 µM (inactive)
CC(C)(C)OC(=O)NCCc1cccc2c1oc1c(CCC(=O)O)cccc12 | > 100 µM (inactive) | > 100 µM (inactive) | > 100 µM (inactive) | > 100 µM (inactive) | > 100 µM (inactive) | > 100 µM (inactive) | > 100 µM (inactive) |  | > 100 µM (inactive)
C=C1CC2CC[C@@]34C[C@@H]5O[C@@H]6C(O[C@H]7CC[C@H](CC(=O)OC8[C@@H](C)C9OC%10C[C@]%11(C[C@@H]%12O[C@@]%13(C[C@@H](C)[C@@H]%12O%11)C[C@H](C)[C@@H]%11OC%12CC(C(O)CO)OC%12C[C@@H]%11O%13)OC%10CC9O[C@H]8C[C@H]8O[C@@H](CC[C@@H]1O2)C[C@@H](C)C8=C)O[C@@H]7[C@@H]6O3)C5O4 (stereo partly drawn) | 0.000428 µM (active) | 0.000564 µM (active) | 0.000499 µM (active) | 0.00178 µM (active) |  |  |  | 0.000603 µM (active) | 0.000267 µM (active)
Cc1[nH]c(O)nc1C(=O)c1ccc(-n2ccnc2)cc1 | > 100 µM (inactive) | > 100 µM (inactive) | > 100 µM (inactive) |  |  | > 100 µM (inactive) | > 100 µM (inactive) |  | 
O=C(O)CN(c1ccc(F)cc1)S(=O)(=O)c1ccccc1 | > 100 µM (inactive) | > 100 µM (inactive) | > 100 µM (inactive) |  | > 100 µM (inactive) | > 100 µM (inactive) |  | > 100 µM (inactive) | > 100 µM (inactive)
CC1OC(=O)C(C(C)C)NC(=O)C(C(C)C)OC(=O)C(C(C)C)NC(=O)C(C)OC(=O)C(C(C)C)NC(=O)C(C(C)C)OC(=O)C(C(C)C)NC(=O)C(C)OC(=O)C(C(C)C)NC(=O)C(C(C)C)OC(=O)C(C(C)C)NC1=O (stereo not drawn) | 0.0034 µM (active) |  | 0.0025 µM (active) | 0.00391 µM (active) | 0.0337 µM (active) | 0.00367 µM (active) | 0.0025 µM (active) |  | 
O=C1c2ccccc2C(=O)c2c(O)c(O)cc(O)c21 [PURPURIN] |  | 37.2 µM (inactive) | 38.1 µM (inactive) | 38.2 µM (inactive) |  | 36.7 µM (inactive) |  | 39.4 µM (inactive) | 22.9 µM (inactive)
